Laboratory results from patent US20220315578A1, “BRD9 BIFUNCTIONAL DEGRADERS AND THEIR METHODS OF USE” (NOVARTIS AG, priority 2019, published 2022).

Biological target: T1, BRD9-GFP (Homo sapiens, UniProt Q9H8M2)
T1 construct: CHYSEL (2A cis-acting hydrolase element) remnant after GFP; mCherry is split off as a separate protein (C); expressed in transfected cells; host or cells: HEK293A cells (Invitrogen R70507), lentiviral transduction with pLenti6-BRD9-GFP-CHYSEL-mCherry, blasticidin selection
T1 sequence (Q9H8M2 1-597): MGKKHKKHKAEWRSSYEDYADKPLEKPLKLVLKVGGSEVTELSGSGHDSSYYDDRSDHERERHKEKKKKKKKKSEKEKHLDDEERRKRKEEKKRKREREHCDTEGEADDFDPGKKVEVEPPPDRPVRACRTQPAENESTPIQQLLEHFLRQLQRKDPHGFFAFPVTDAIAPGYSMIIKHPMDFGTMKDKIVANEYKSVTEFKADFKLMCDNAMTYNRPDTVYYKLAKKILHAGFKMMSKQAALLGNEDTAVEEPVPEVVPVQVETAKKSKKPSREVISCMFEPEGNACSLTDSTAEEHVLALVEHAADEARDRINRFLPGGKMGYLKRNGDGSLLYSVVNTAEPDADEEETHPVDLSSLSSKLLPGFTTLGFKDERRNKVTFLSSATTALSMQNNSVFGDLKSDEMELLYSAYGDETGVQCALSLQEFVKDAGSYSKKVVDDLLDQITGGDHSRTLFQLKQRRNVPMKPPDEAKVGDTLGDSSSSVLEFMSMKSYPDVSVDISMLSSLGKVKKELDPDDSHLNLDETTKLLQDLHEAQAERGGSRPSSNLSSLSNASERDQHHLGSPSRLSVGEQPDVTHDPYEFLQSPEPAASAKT
Test: BRD9-GFP protein abundance flow cytometry assay in HEK293A cells
Assay type: cell-based
Conditions: HEK293A-BRD9-GFP-CHYSEL-mCherry cells; for BRD9 Deg Amax %: 24 h, % protein remaining at the concentration at which maximum degradation is seen; for DC50: 24 h at 37° C., 10-point 1:3 dilution, concentration at which 50% maximal degradation was observed
Protocol: Compounds of the invention were tested in the following cellular assays. The terms in Table 1 are defined as follows: DC50 refers to the concentration at which 50% maximal degradation was observed; deg Amax is the extent of degradation and the value refers to the % protein remaining at the concentration at which maximum degradation is seen.
BRD9-GFP protein abundance flow cytometry assay in HEK293A cells: Degradation of BRD9 was measured in HEK293A cells expressing BRD9-GFP and mCherry from a stably integrated second generation bicistronic BRD9-GFP-CHYSELmCherry construct. Reduction of the GFP signal measured by flow cytometry served as readout for BRD9 degradation after degrader treatment.
The bicistronic BRD9-GFP-CHYSEL-mCherry construct is based on a pLenti6-DEST vector backbone where a GFP-CHYSEL-mCherry cassette was synthesized and inserted downstream of the DEST cassette by Gibson assembly resulting in the new gateway compatible vector pLenti6-DEST-GFP-CHYSEL-mCherry to allow Gateway cloning with pENTR221-BRD9 (w/o ATG) to obtain the final sensor construct pLenti6-BRD9-GFP-CHYSEL-mCherry.
HEK293 Å-BRD9-GFP-CHYSEL-mCherry sensor cells were generated by lentiviral vector transduction using the pLenti6-BRD9-GFP-CHYSEL-mCherry sensor construct described before. […] The mix was incubated for another 20 min at RT and then added to 1 ml of a freshly prepared suspension of HEK293FT cells in a well of a 6-well plate (concentration 1.2×10^6 cells/ml). 1 day after transfection, the medium was replaced with 1.5 ml of complete growth medium (DMEM high Glucose+10% FCS+1% L-Glutamine+1% NEAA+1% NaPyr.). 48 h post transfection supernatant containing viral transducing particles was collected and frozen at −80° C. […] Infection was performed with […] of collected supernatant containing viral transducing particles in 1 ml medium including 8 μg/ml polybrene. 24 h post infection, stably transfected cells were selected with blasticidin at a concentration of 8 μg/ml.
Stable HEK293 Å-BRD9-GFP-CHYSEL-mCherry cells were maintained in complete growth medium (DMEM high Glucose+10% FCS+1% L-Glutamine+1% NEAA+1% NaPyr.) with passaging performed twice per week. On Day 0, HEK293 Å-BRD9-GFP-CHYSEL-mCherry cells were seeded at 10,000 cells/well in a 96-well microtiter plate in […] complete medium. On Day 1, cells were treated in duplicate with 10-point 1:3 dilution series of compound using the HP D300 Digital Dispenser (Tecan). DMSO concentrations were normalized across the plate to 0.1%. On Day 2, after 24 h of incubation at 37° C., treatment media was discarded, cells rinsed with 100 ul/well PBS and then detached using 40 ul trypsin/well for 5 min. Trypsin was neutralized with 100 ul/well PBS+20% FCS). Flow cytometry was performed on the samples using the Beckman Coulter CytoFLEX flow cytometer. Cell identification was then performed using forward (FSC) vs. side scatter (SSC) plots. Single cell discrimination is performed using FSC-Width (FSC-W) vs. FSC-Height (FSC-H) plots. Median GFP/mCherry ratio values for 5,000 single cells are used to determine BRD9 levels. Median GFP/mCherry ratio values from HEK293 Å-mCherry are used as a background signal and thus defining 0% BRD9 signal. Median GFP/mCherry ratio values from DMSO treated HEK293 Å-BRD9-GFP-CHYSEL-mCherry are used to define 100% BRD9 signal for subsequent DC50 curves (concentration at 50% BRD9 degradation). Concentration response curves plotting relative reduction of the GFP/mCherry ratio signal (measured by flow cytometry) versus 10 compound concentrations (starting concentration […], 3 fold dilution steps) of the compounds allowed generation of DC50 values. Data is shown in Tables 2 and 3, in which, DC50 refers to the concentration at which 50% maximal degradation was observed; deg Amax is the extent of degradation and the value refers to the % protein remaining at the concentration at which maximum degradation is seen.

Row | Structure (SMILES) | BRD9 Deg Amax % [%] | DC50 [nM]
1 | COc1cc(-c2cn(C)c(=O)c3cnccc23)cc(OC)c1CCCN1CCC(OC2CCN(C(=O)c3ccc(Cl)c(N4CCC(=O)NC4=O)c3)CC2)CC1 [Compound A28, 1-(2-Chloro-5-(4-((1-(3-(2,6-dimethoxy-4-(2-methyl-1-oxo-1,2-dihydro-2,7-naphthyridin-4-yl)phenyl)propyl)piperidin-4-yl)oxy)piperidine-1-carbonyl)phenyl)dihydropyrimidine-2,4(1H,3H)-dione] | 22.70 | 2
2 | COc1cc(-c2cn(C)c(=O)c3cnccc23)c(OC)cc1CN1CCC(OC2CCN(C(=O)c3ccc(C)c(N4CCC(=O)NC4=O)c3)CC2)CC1 [Compound A29, 1-(5-(4-((1-(2,5-Dimethoxy-4-(2-methyl-1-oxo-1,2-dihydro-2,7-naphthyridin-4-yl)benzyl)piperidin-4-yl)oxy)piperidine-1-carbonyl)-2-methylphenyl)dihydropyrimidine-2,4(1H,3H)-dione] | 15.75 | 34
3 | COc1cc(-c2cn(C)c(=O)c3cnccc23)c(OC)cc1CN1CCC(OC2CCN(C(=O)c3ccc(Cl)c(N4CCC(=O)NC4=O)c3)CC2)CC1 [Compound A30, 1-(2-Chloro-5-(4-((1-(2,5-dimethoxy-4-(2-methyl-1-oxo-1,2-dihydro-2,7-naphthyridin-4-yl)benzyl)piperidin-4-yl)oxy)piperidine-1-carbonyl)phenyl)dihydropyrimidine-2,4(1H,3H)-dione] | 13.99 | 16
4 | COc1ccc(C(=O)N2CCC(OC3CCN(C(=O)/C=C/c4c(OC)cc(-c5cn(C)c(=O)c6cnccc56)cc4OC)CC3)CC2)cc1N1CCC(=O)NC1=O [Compound A31, (E)-1-(5-(4-((1-(3-(2,6-dimethoxy-4-(2-methyl-1-oxo-1,2-dihydro-2,7-naphthyridin-4-yl)phenyl)acryloyl)piperidin-4-yl)oxy)piperidine-1-carbonyl)-2-methoxyphenyl)dihydropyrimidine-2,4(1H,3H)-dione] | 15.11 | 10
5 | COc1ccc(C(=O)N2CCC(OC3CCN(CCc4c(OC)cc(-c5cn(C)c(=O)c6cnccc56)cc4OC)CC3)CC2)cc1N1CCC(=O)NC1=O [Compound A32, 1-(5-(4-((1-(2,6-Dimethoxy-4-(2-methyl-1-oxo-1,2-dihydro-2,7-naphthyridin-4-yl)phenethyl)piperidin-4-yl)oxy)piperidine-1-carbonyl)-2-methoxyphenyl)dihydropyrimidine-2,4(1H,3H)-dione] | 16.20 | 6
6 | COc1cc(-c2cn(C)c(=O)c3cnccc23)cc(OC)c1CN1CCC(OC2CCN(C(=O)c3ccc(C)c(N4CCC(=O)NC4=O)c3)CC2)CC1 [Compound A33, 1-(5-(4-((1-(2,6-Dimethoxy-4-(2-methyl-1-oxo-1,2-dihydro-2,7-naphthyridin-4-yl)benzyl)piperidin-4-yl)oxy)piperidine-1-carbonyl)-2-methylphenyl)dihydropyrimidine-2,4(1H,3H)-dione] | 13.30 | 34
7 | COc1ccc(C(=O)N2CCC(OCCN3CCN(Cc4c(OC)cc(-c5cn(C)c(=O)c6cnccc56)cc4OC)CC3)CC2)cc1N1CCC(=O)NC1=O [Compound A34, 1-(5-(4-(2-(4-(2,6-Dimethoxy-4-(2-methyl-1-oxo-1,2-dihydro-2,7-naphthyridin-4-yl)benzyl)piperazin-1-yl)ethoxy)piperidine-1-carbonyl)-2-methoxyphenyl)dihydropyrimidine-2,4(1H,3H)-dione] | 13.80 | 37
8 | COc1cc(-c2cn(C)c(=O)c3cnccc23)cc(OC)c1CN1CCC(OC2CCN(C(=O)COc3ccc(N4CCC(=O)NC4=O)cc3)CC2)CC1 [Compound A35, 1-(4-(2-(4-((1-(2,6-Dimethoxy-4-(2-methyl-1-oxo-1,2-dihydro-2,7-naphthyridin-4-yl)benzyl)piperidin-4-yl)oxy)piperidin-1-yl)-2-oxoethoxy)phenyl)dihydropyrimidine-2,4(1H,3H)-dione] | 13.19 | 31

The next lines start with the values.

Row | BRD9 Deg Amax % [%] | DC50 [nM] | Structure (SMILES)
9 | 18.42 | 39 | COc1cc(-c2cn(C)c(=O)c3cnccc23)cc(OC)c1CN1CCC(OC2CCN(C(=O)c3cccc(N4CCC(=O)NC4=O)c3)CC2)CC1 [Compound A36, 1-(3-(4-((1-(2,6-Dimethoxy-4-(2-methyl-1-oxo-1,2-dihydro-2,7-naphthyridin-4-yl)benzyl)piperidin-4-yl)oxy)piperidine-1-carbonyl)phenyl)dihydropyrimidine-2,4(1H,3H)-dione]
10 | 13.01 | 2 | COc1ccc(C(=O)N2CCC(OC3CCN(CCCc4c(OC)cc(-c5cn(C)c(=O)c6cnccc56)cc4OC)CC3)CC2)cc1N1CCC(=O)NC1=O [Compound A37, 1-(5-(4-((1-(3-(2,6-Dimethoxy-4-(2-methyl-1-oxo-1,2-dihydro-2,7-naphthyridin-4-yl)phenyl)propyl)piperidin-4-yl)oxy)piperidine-1-carbonyl)-2-methoxyphenyl)dihydropyrimidine-2,4(1H,3H)-dione]
11 | 15.53 | 1 | COc1cc(-c2cn(C)c(=O)c3cnccc23)cc(OC)c1CCN1CCC(OC2CCN(C(=O)c3ccc(Cl)c(N4CCC(=O)NC4=O)c3)CC2)CC1 [Compound A38, 1-(2-Chloro-5-(4-((1-(2,6-dimethoxy-4-(2-methyl-1-oxo-1,2-dihydro-2,7-naphthyridin-4-yl)phenethyl)piperidin-4-yl)oxy)piperidine-1-carbonyl)phenyl)dihydropyrimidine-2,4(1H,3H)-dione]
12 | 16.72 | 21 | COc1cc(-c2cn(C)c(=O)c3cnccc23)c(OC)cc1CCN1CCC(OC2CCN(C(=O)c3ccc(Cl)c(N4CCC(=O)NC4=O)c3)CC2)CC1 [Compound A39, 1-(2-Chloro-5-(4-((1-(2,5-dimethoxy-4-(2-methyl-1-oxo-1,2-dihydro-2,7-naphthyridin-4-yl)phenethyl)piperidin-4-yl)oxy)piperidine-1-carbonyl)phenyl)dihydropyrimidine-2,4(1H,3H)-dione]
